System: CD3+CD8+ T cells
Test: MHC class I dextramer-based T-cell recognition assay (flow cytometry of PBMCs/TILs with pMHC complexes)
Parameters: species or system human
Conditions: for tested healthy donors whose T cells recognized the epitope: three HLA-matched healthy donors tested, PBMCs
Protocol: Assays to determine immunogenicity and/or TCR binding can be performed. One such as is the dextramer flow cytometery assay. Generally, custom-made HLA-matched MHC Class I dextramer:peptide (pMHC) complexes are developed or purchased (Immudex, Copenhagen, Denmark). T cells from peripheral blood mononuclear cells (PBMCs) or tumor-infiltrating lymphocytes (TILs) are incubated the pMHC complexes and stained, which are then run through a flow cytometer to determine if the peptide is capable of binding a TCR of a T cell.
Finally, the inventors sought to validate the immunogenicity and T-cell recognition of IRIS-identified candidate TCR targets using an MHC class I dextramer-based assay (12,24). The inventors focused on predicted AS-derived tumor epitopes with strong putative HLA-binding affinity to common HLA types found in at least five of the 22 patients. The inventors selected seven AS-derived tumor-associated epitopes (five HLA-A02:01 and two HLA-A03:01) for dextramer-based T-cell recognition testing (Table 4). […] The inventors obtained customized HLA-matched, fluorescently labeled MEW class I dextramer:peptide (pMHC) complexes for each candidate epitope. The inventors conducted flow cytometry to detect CD8^+ T-cell binding with the pMHC complexes using available peripheral blood mononuclear cells (PBMCs) and/or ex vivo-expanded tumor-infiltrating lymphocytes (TILs). Based on the binding of each AS-derived tumor epitope to a patient's CD3^+CD8^+ T cells, the inventors classified epitope reactivity as ‘positive’ (binding>0.1% of cells), ‘marginal’ (binding 0.01-0.1% of cells), or ‘negative’ (binding<0.01% of cells). […] The inventors analyzed samples from two HLA-A02:01 and four HLA-A03:01 patients, as well as samples from three HLA-A02:01 and three HLA-A03:01 healthy donors (Table 5, Supplementary Data).
Dextramer flow-cytometric analysis of PBMCs and TILs. For each AS-derived peptide selected for validation, custom-made HLA-matched MHC Class I dextramer:peptide (pMHC) complexes were purchased from Immudex (Copenhagen, Denmark). Immudex also provided pMHC complexes for common cytomegalovirus (CMV) epitopes (cat. nos. WB2132 and WC2197) and for a nonhuman epitope (NI3233) as a negative control. Each pMHC complex was purchased with two separate tags for APC or PE fluorescence labeling, to increase specificity to targeted T cells with dual labeling.
To facilitate proper gating of CD8^+ T cells from PBMC and TIL populations, the following panel of antibodies (from BioLegend) was set up: CD3 BV605 (cat. no. 300460), CD8 FITC (cat. no. 344704), CD4 BV421 (cat. no. 317434), CD19 BV421 (cat. no. 302234), CD56 BV421 (cat. no. 362552), and CD14 BV421 (cat. no. 301828). For single-color compensation controls, OneComp eBeads were used (Thermo Fisher Scientific, cat. no. 01-1111-41).
For each set of pMHC complexes, at least 3×10^6 cells were stained according to manufacturer's guidelines. Briefly, cells were thawed in a 37° C. water bath and washed with RPMI and D-PBS (Fisher Scientific, cat. no. MT21031CV) before staining for cell viability with the Zombie Violet Viability Kit (BioLegend, cat. no. 423113). Next, the appropriate amount of each pMHC complex in a staining buffer of D-PBS with 5% fetal bovine serum (Fisher Scientific, cat. no. MT35016CV) was added to each sample. After 10 min, the aforementioned antibody cocktail was added. After a 30-min incubation period, cells were washed twice in the same staining buffer. All samples were tested in a BD LSRII flow cytometer, and data were analyzed with FlowJo (Treestar). For gating, the lymphocyte population was first selected using forward and side scatter, and then the BV421-negative population was gated out (i.e. excluding dead cells and the CD14, CD19, CD56, and CD4 populations) before selecting the CD3^+CD8^+population. […]

[1] = patient LB2867, ex vivo-expanded TILs

Sequence | recognition by patient T cells (GBM patients, PBMCs and/or ex vivo-expanded TILs) | tested patients whose T cells recognized the epitope (four HLA-A03:01 GBM patients tested, PBMCs and/or TILs, at least marginal reactivity = recognized) | epitope-reactive T cells, % of T cells in PBMCs (patient LB2867, PBMCs) | epitope reactivity (recognition) in expanded TIL population [1] | epitope-reactive T cells, % of T cells in TILs [1] | tested healthy donors whose T cells recognized the epitope | reactive cells, % of CD3+CD8+ T cells (the one recognizing healthy donor of three tested)
KIGRLVTRK (listed as Homo sapiens) | recognized | all four tested patients | 0.03% | positive (‘positive’ (binding>0.1% of cells)) | 1.69% | one of the three | 
YAIVWVNGV (listed as Homo sapiens) |  |  |  |  |  | only one healthy donor | 0.013%

Reference: patent publication US20220380937A1, “IDENTIFICATION OF SPLICING-DERIVED ANTIGENS FOR TREATING CANCER” (THE REGENTS OF THE UNIVERSITY OF CALIFORNIA, priority 2019, published 2022)
